“Also recorded” adds a separate entry of the source.
Legend:
Type in all cases: cell-based
[1] = test system: human PBMCs; assay: IL-1β release from human PBMCs (ELISA, Western blot)
Experimental: (§1) Bone marrow derived macrophages were generated as described (Severa, M et al. Journal of Biological Chemistry 281:26188-26195 (2006)). Human PBMCs were isolated by from whole blood of healthy volunteers by density gradient centrifugation. Lysis of red blood cells was performed using red blood cell lysis buffer (Sigma). Experiments in PBMCs and macrophages were carried out at a cell density of 2×10^6 cells/ml. All primary cells and cell lines except THP-1 cells were cultured in DMEM supplemented with L-glutamine, ciprofloxacin (Cellgro, Manassas, Va.) and 10% fetal calf serum (Hyclone, Logan, Utah). THP-1 cells were cultured in RPMI supplemented with 10% fetal calf serum (Hyclone), L-glutamine, sodium pyruvate (Cellgro), and ciprofloxacin. One day prior to stimulation, THP-1 cells were differentiated using 0.5 μM PMA for three hours, washed three times and plated for stimulation. All experiments that were performed for Western blot analysis were carried out in serum free DMEM medium. ATP stimulations were carried out at 5 mM one hour prior to harvesting supernatants.
(§2) Cell culture supernatants were assayed for IL-1β using ELISA kits from BD Biosciences (Franklin Lakes, NJ) according to the manufacturer's instructions. To measure intracellular IL-1β, cells were washed and subjected to three freeze thaw cycles in assay diluent.
Cell culture supernatants were precipitated by adding an equal volume of methanol and 0.25 volumes of chloroform, vortexed and centrifuged at 20.000×g for 10 min. The upper phase was discarded and 500 μl of methanol was added to the interphase. This mixture was centrifuged at 20.000×g for 10 min and the protein pellet dried at 55° C., resuspended in Laemmli buffer and boiled at 99° C. for 5 min. Samples were separated by SDS-PAGE (15%) and transferred onto nitrocellulose membranes. […]

[2] = test system: mouse macrophages; assay: IL-1β release from LPS-primed mouse macrophages (bone marrow-derived, B6-MCLs), ELISA; settings: LPS-primed B6-MCLs, cytochalasin D 30 min
Experimental: as §1
Immortalized macrophage cell lines were generated using the previously described J2 recombinant retrovirus (carrying v-myc and v-raf/mil oncogenes) (Roberson, S. M. & Walker, W. S. Cellular immunology 116:341-351 (1988)). Briefly, primary bone marrow cells were incubated in L929 conditioned medium for 3-4 days to induce macrophage differentiation. Subsequently, cells were infected with J2 recombinant retrovirus. Cells were maintained in culture for 3-6 months slowly weaning off the percentage of L929 supernatant until cells were growing in the absence of conditioned medium.
Macrophage phenotype was verified by surface marker expression for CD11b and F480 as well as a range of functional parameters, including responsiveness to TLR ligands and bacterial uptake. Macrophage cell lines from wild-type (C57BL6), NALP3- and ASC-deficient mice were generated and are referred to as B6-MCLs, NALP3 -MCLs and ASC-MCLs.
as §2
(§3) Stimulations were carried out in serum free DMEM medium. Microglial cells and macrophages were primed with 100 U/ml IFNγ (Griess assay, TNF ELISA, real-time quantitative PCR) or 100 ng/ml ultrapure LPS (IL-1β ELISA, FLICA, ASC-CFP microglia cell line assay, Western blot) 1-3 h prior to stimulation with Aβ, revAβ, zymosan, ATP or transfection with dAdT.

[3] = test system: mouse macrophages; assay: Crystal uptake (phagocytosis) in mouse macrophages, confocal reflection microscopy; settings: cytochalasin D 2.5 μM
Description: Confocal reflection microscopy was combined with fluorescence microscopy on a Leica SP2 AOBS confocal laser scanning microscope. Reflection was captured by placing the detector channel directly over the wavelength of the selected laser channel for reflection light capture and the AOBS was set to allow 5-15% of laser light into the collection channel. Fluorescence was simultaneously captured by standard confocal imaging techniques.
To visualize the uptake of crystalline material in living cells, we devised a method to image crystals simultaneously with cellular components stained with fluorescent dyes (FIG. 8b). We used this method to study the uptake of crystals into mouse macrophages. […] The median length of silica Q6 crystals engulfed by phagocytosis was 1.65 μm (FIG. 3c).

[4] = test system: mouse microglia; assay: IL-1β release from LPS-primed mouse microglia (ELISA)
Experimental: For primary cultures, bone marrow-derived macrophages and microglia were isolated as described^42,43 and cultured in DMEM supplemented with L-glutamine, ciprofloxacin (Cellgro, Manassas, Va.) and 10% fetal calf serum (Hyclone, Logan, Utah) Immortalized macrophage and microglial cell lines were generated using J2 recombinant retrovirus (carrying v-myc and v-raf oncogenes)^44,45. Briefly, primary bone marrow cells were incubated in L929 conditioned medium for 3-4 days to induce macrophage differentiation. Cells were then infected with J2 recombinant retrovirus and maintained in culture until cells were growing in the absence of conditioned medium. Similarly, primary mixed glial cultures were cultured until fully confluent. After two consecutive infections with J2 retrovirus, cells were maintained in normal medium until growth of microglial cells in colonies was observed. The semi-adherent colonies of microglial cells were washed off and cultured in new flasks. […] Microglial cell lines form wild type (C57/BL6), Caspase-1^−/− and IL-IR^−/− mice as well as macrophage cell lines from wild type (C57BL6), NALP3 -, IPAF- and ASC-deficient mice were generated and used for experiments as indicated.
as §3
(§4) Cell culture supernatants were assayed for IL-1β and TNFα using ELISA kits from R&D Systems (Minneapolis, Minn.) according to the manufacturer's instructions. Nitric oxide was measured by Griess reaction of nitrites accumulated in the supernatants using chemicals from Sigma.

[5] = test system: mouse microglia; assay: Nitric oxide production by primed microglia (Griess reaction); settings: primed immortalized microglia, 24 h
Experimental: as §3, §4

[6] = test system: mouse microglia; assay: TNF-α release from primed microglia (ELISA); settings: primed immortalized microglia, 24 h
Experimental: as §3, §4

[7] = human PBMCs pretreated with cytochalasin D
[8] = wild type immortalized microglia

## C=C1[C@@H](C)[C@H]2[C@H](Cc3ccccc3)NC(=O)[C@]23[C@H](OC(C)=O)/C=C/[C@@](C)(O)C(=O)[C@@H](C)C/C=C/[C@H]3[C@@H]1O [cytochalasin D]
[1]; [7]
  IL-1β release after treatment with MSU or silica crystals, inhibitor pretreatment: completely abrogated
  IL-1β response to R-848 or ATP, inhibitor pretreatment: unaffected
[2]
  IL-1β response to ATP, inhibitor present: unaffected
[2]; MSU 250 μg/ml, silica 500 μg/ml
  IL-1β release after treatment with MSU or silica crystals, inhibitor present: abrogated
[3]
  phagocytosis of silica or MSU crystals by treated cells: failed to engulf
[4]; [8]
  ATP-induced IL-1β release in presence of cytochalasin D: no effect; also recorded: not affected
  Aβ-induced IL-1β release in presence of cytochalasin D: strongly attenuated; also recorded: dose-dependently inhibited

## COC(=O)C[C@H](NC(=O)[C@H](C)NC(=O)[C@@H](NC(=O)[C@H](Cc1ccc(O)cc1)NC(=O)OCc1ccccc1)C(C)C)C(=O)CF [z-YVAD, z-YVAD-fmk]
[1]; LPS-primed human PBMCs, silica crystals, z-YVAD, 6 h
  IL-1β response to silica crystal treatment in presence of inhibitor: almost completely abolished
[4]; primary microglia
  ATP-induced IL-1β release in presence of caspase-1 inhibitor: also inhibited
  Aβ-induced IL-1β release in presence of caspase-1 inhibitor: dose-dependently reduced
[4]; wild type immortalized microglial cells, 6 h
  Aβ-induced IL-1β release in presence of caspase-1 inhibitor: dose-dependent inhibition; also recorded: significant attenuation
[5]
  Aβ-induced NO production, inhibitor present: strongly and dose-dependently attenuated; also recorded: strongly inhibited
[6]
  Aβ-induced TNF-α release, inhibitor present: attenuated; also recorded: inhibited
